Reference: patent US11970494B2, “6-heteroaryloxy benzimidazoles and azabenzimidazoles as JAK2 inhibitors” (Ajax Therapeutics, Inc., priority 2021, dated 2024)

biological target: T1, JAK2 (JH1 domain-catalytic, Y1007F,Y1008F) kinase (Homo sapiens, UniProt O60674, Y1007F/Y1008F); test: JAK2 Binding Assay (JAK2 JH1 Domain Binding Assay); conditions: JAK2 JH1 domain binding, qPCR detection; read-out: JAK2 Kd
T1 construct: made in house; host or cells: transiently transfected HEK293 cells
T1 sequence (O60674 849-1124 Y1007F/Y1008F limits assumed): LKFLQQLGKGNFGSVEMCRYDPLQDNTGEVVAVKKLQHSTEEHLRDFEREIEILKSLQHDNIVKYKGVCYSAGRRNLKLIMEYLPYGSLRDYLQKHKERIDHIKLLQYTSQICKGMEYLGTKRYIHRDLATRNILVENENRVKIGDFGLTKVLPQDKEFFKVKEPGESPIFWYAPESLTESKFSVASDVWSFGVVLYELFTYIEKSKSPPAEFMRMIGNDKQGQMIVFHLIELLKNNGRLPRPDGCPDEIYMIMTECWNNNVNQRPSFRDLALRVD

Kd, < 10 nM:
CNC(=O)Nc1cc(Oc2cnc3nc(Nc4cc5n(n4)CCCC5(F)F)n(C)c3c2C#N)ccn1 [Example I-27, 1-(4-((7-cyano-2-((4,4-difluoro-4,5,6,7-tetrahydropyrazolo[1,5-a]pyridin-2-yl)amino)-1-methyl-1H-imidazo[4,5-b]pyridin-6-yl)oxy)pyridin-2-yl)-3-methylurea]
Cn1c(Nc2cc3n(n2)CCCC3(F)F)nc2ncc(Oc3ccnc(NC(=O)N4CC[C@@H](O)C4)c3)c(C#N)c21 [Example I-28, (R)-N-(4-((7-cyano-2-((4,4-difluoro-4,5,6,7-tetrahydropyrazolo[1,5-c]pyridin-2-yl)amino)-1-methyl-1H-imidazo[4,5-b]pyridin-6-yl)oxy)pyridin-2-yl)-3-hydroxypyrrolidine-1-carboxamide]
COCCOC(=O)Nc1cc(Oc2cnc3nc(Nc4cc5n(n4)CCCC5(F)F)n(C)c3c2C#N)ccn1 [Example I-32, 2-Methoxyethyl(4-((7-cyano-2-((4,4-difluoro-4,5,6,7-tetrahydropyrazolo[1,5-a]pyridin-2-yl)amino)-1-methyl-1H-imidazo[4,5-b]pyridin-6-yl)oxy)pyridin-2-yl)carbamate]
CO[C@@H]1CCN(C(=O)Nc2cc(Oc3cnc4nc(Nc5cc6n(n5)CCCC6(F)F)n(C)c4c3C#N)ccn2)C1 [Example I-33]
CO[C@H]1CCN(C(=O)Nc2cc(Oc3cnc4nc(Nc5cc6n(n5)CCCC6(F)F)n(C)c4c3C#N)ccn2)C1 [Example I-34, (S)-N-(4-((7-cyano-2-((4,4-difluoro-4,5,6,7-tetrahydropyrazolo[1,5-a]pyridin-2-yl)amino)-1-methyl-1H-imidazo[4,5-b]pyridin-6-yl)oxy)pyridin-2-yl)-3-methoxypyrrolidine-1-carboxamide]
Cn1c(Nc2cc3n(n2)CCCC3(F)F)nc2ncc(Oc3ccnc(NC(=O)N4CC(O)C4)c3)c(C#N)c21 [Example I-35, N-(4-((7-cyano-2-((4,4-difluoro-4,5,6,7-tetrahydropyrazolo[1,5-a]pyridin-2-yl)amino)-1-methyl-1H-imidazo[4,5-b]pyridin-6-yl)oxy)pyridin-2-yl)-3-hydroxyazetidine-1-carboxamide]
Cn1c(Nc2cc3n(n2)CCCC3(F)F)nc2ncc(Oc3ccnc(NC(=O)O[C@H]4CCOC4)c3)c(C#N)c21 [Example I-36, (S)-tetrahydrofuran-3-yl(4-((7-cyano-2-((4,4-difluoro-4,5,6,7-tetrahydropyrazolo[1,5-a]pyridin-2-yl)amino)-1-methyl-1H-imidazo[4,5-b]pyridinyl)oxy)pyridin-2-yl)carbamate]
Cn1c(Nc2cc3n(n2)CCCC3(F)F)nc2ncc(Oc3ccnc(NC(=O)O[C@@H]4CCOC4)c3)c(C#N)c21 [Example I-37, (R)-tetrahydrofuran-3-yl(4-((7-cyano-2-((4,4-difluoro-4,5,6,7-tetrahydropyrazolo[1,5-a]pyridin-2-yl)amino)-1-methyl-1H-imidazo[4,5-b]pyridin-6-yl)oxy)pyridin-2-yl)carbamate]
CN(C)CCOC(=O)Nc1cc(Oc2cnc3nc(Nc4cc5n(n4)CCCC5(F)F)n(C)c3c2C#N)ccn1 [Example I-38, 2-(Dimethylamino)ethyl(4-((7-cyano-2-((4,4-difluoro-4,5,6,7-tetrahydropyrazolo[1,5-a]pyridin-2-yl)amino)-1-methyl-1H-imidazo[4,5-b]pyridin-6-yl)oxy)pyridin-2-yl)carbamate]
Cn1cc(C(F)(F)F)cc(Nc2nc3ncc(Oc4ccnc(NC(=O)NC5CC5)c4)c(C#N)c3n2C)c1=O [Example I-42, 1-(4-((7-cyano-1-methyl-2-((1-methyl-2-oxo-5-(trifluoromethyl)-1,2-dihydropyridin-3-yl)amino)-1H-imidazo[4,5-b]pyridin-6-yl)oxy)pyridin-2-yl)-3-cyclopropylurea]
COC(=O)Nc1cc(Oc2cnc3nc(Nc4cc5n(n4)CCOC5(C)C)n(C)c3c2C#N)ccn1 [Example I-43, Methyl(4-((7-cyano-2-((4,4-dimethyl-6,7-dihydro-4H-pyrazolo[5,1-c][1,4]oxazin-2-yl)amino)-1-methyl-1H-imidazo[4,5-b]pyridin-6-yl)oxy)pyridin-2-yl)carbamate]
CN(C)C(=O)Nc1cc(Oc2cnc3nc(Nc4cc5n(n4)CCOC5(C)C)n(C)c3c2C#N)ccn1 [Example I-44, 3-(4-((7-cyano-2-((4,4-dimethyl-6,7-dihydro-4H-pyrazolo[5,1-c][1,4]oxazin-2-yl)amino)-1-methyl-1H-imidazo[4,5-b]pyridin-6-yl)oxy)pyridin-2-yl)-1,1-dimethylurea]
Cn1c(Nc2cc3n(n2)CCOC3(C)C)nc2ncc(Oc3ccnc(NC(=O)N4CCCC4)c3)c(C#N)c21 [Example I-45, N-(4-((7-cyano-2-((4,4-dimethyl-6,7-dihydro-4H-pyrazolo[5,1-c][1,4]oxazin-2-yl)amino)-1-methyl-1H-imidazo[4,5-b]pyridin-6-yl)oxy)pyridin-2-yl)pyrrolidine-1-carboxamide]
Cn1c(Nc2cc3n(n2)CCOC3(C)C)nc2ncc(Oc3ccnc(NC(=O)N4CCC4)c3)c(C#N)c21 [Example I-47, N-(4-((7-cyano-2-((4,4-dimethyl-6,7-dihydro-4H-pyrazolo[5,1-c][1,4]oxazin-2-yl)amino)-1-methyl-1H-imidazo[4,5-b]pyridin-6-yl)oxy)pyridin-2-yl)azetidine-1-carboxamide]
Cn1c(Nc2cc3n(n2)CCOC3(C)C)nc2ncc(Oc3ccnc(NC(=O)O[C@H]4CCOC4)c3)c(C#N)c21 [Example I-49, (S)-Tetrahydrofuran-3-yl(4-((7-cyano-2-((4,4-dimethyl-6,7-dihydro-4H-pyrazolo[5,1-c][1,4]oxazin-2-yl)amino)-1-methyl-1H-imidazo[4,5-b]pyridin-6-yl)oxy)pyridin-2-yl)carbamate]
[2H]C([2H])([2H])N(C(=O)Nc1cc(Oc2cnc3nc(Nc4cc(C(F)(F)F)cn(C)c4=O)n(C)c3c2C#N)ccn1)C([2H])([2H])[2H] [Example I-52, 3-(4-((7-cyano-1-methyl-2-((1-methyl-2-oxo-5-(trifluoromethyl)-1,2-dihydropyridin-3-yl)amino)-1H-imidazo[4,5-b]pyridin-6-yl)oxy)pyridin-2-yl)-1,1-bis(methyl-d3)urea]

Kd, 10 to 50 nM:
Cn1c(Nc2cc3n(n2)CCCC3(F)F)nc2ncc(Oc3ccnc(NC(=O)N4CC[C@H](O)C4)c3)c(C#N)c21 [Example I-29, (S)-N-(4-((7-cyano-2-((4,4-difluoro-4,5,6,7-tetrahydropyrazolo[1,5-a]pyridin-2-yl)amino)-1-methyl-1H-imidazo[4,5-b]pyridin-6-yl)oxy)pyridin-2-yl)-3-hydroxypyrrolidine-1-carboxamide]
COC(=O)Nc1cc(Oc2cnc3nc(Nc4cc(C(F)(F)F)n(C5CC6(COC6)C5)n4)n(C)c3c2C#N)ccn1 [Example I-31, Methyl(4-((2-((1-(2-oxaspiro[3.3]heptan-6-yl)-5-(trifluoromethyl)-1H-pyrazol-3-yl)amino)-7-cyano-1-methyl-1H-imidazo[4,5-b]pyridin-6-yl)oxy)pyridin-2-yl)carbamate]

Kd, 1000 to 5000 nM:
COC(=O)Nc1cc(Oc2cnc3nc(Nc4cc5n(n4)CCN(C)C5=O)n(C)c3c2Cl)ccn1 [Example I-40, Methyl(4-((7-chloro-1-methyl-2-((5-methyl-4-oxo-4,5,6,7-tetrahydropyrazolo[1,5-a]pyrazin-2-yl)amino)-1H-imidazo[4,5-b]pyridin-6-yl)oxy)pyridin-2-yl)carbamate]
CN1CCn2nc(Nc3nc4ncc(Oc5ccnc(NC(=O)OC6COC6)c5)c(Cl)c4n3C)cc2C1=O [Example I-54, oxetan-3-yl(4-((7-chloro-1-methyl-2-((5-methyl-4-oxo-4,5,6,7-tetrahydropyrazolo[1,5-a]pyrazin-2-yl)amino)-1H-imidazo[4,5-b]pyridin-6-yl)oxy)pyridin-2-yl)carbamate]
CN1CCn2nc(Nc3nc4ncc(Oc5ccnc(NC(=O)O[C@H]6CCOC6)c5)c(Cl)c4n3C)cc2C1=O [Example I-55, (S)-tetrahydrofuran-3-yl(4-((7-chloro-1-methyl-2-((5-methyl-4-oxo-4,5,6,7-tetrahydropyrazolo[1,5-a]pyrazin-2-yl)amino)-1H-imidazo[4,5-b]pyridin-6-yl)oxy)pyridinyl)carbamate]

Kd, 50 to 1000 nM:
CN1CC(OC(=O)Nc2cc(Oc3cnc4nc(Nc5cc(C(F)(F)F)cn(C)c5=O)n(C)c4c3C#N)ccn2)C1 [Example I-39, 1-Methylazetidin-3-yl(4-((7-cyano-1-methyl-2-((1-methyl-2-oxo-5-(trifluoromethyl)-1,2-dihydropyridin-3-yl)amino)-1H-imidazo[4,5-b]pyridin-6-yl)oxy)pyridin-2-yl)carbamate]
COC(=O)Nc1cc(Oc2cnc3nc(Nc4cc5n(n4)CCN(C)C5=O)n(C)c3c2C#N)ccn1 [Example I-41, Methyl(4-((7-cyano-1-methyl-2-((5-methyl-4-oxo-4,5,6,7-tetrahydropyrazolo[1,5-a]pyrazin-2-yl)amino)-1H-imidazo[4,5-b]pyridin-6-yl)oxy)pyridin-2-yl)carbamate]

Kd, > 5000 nM:
CN(C)C(=O)Nc1cc(Oc2cnc3nc(Nc4cc5n(n4)CCN(C)C5=O)n(C)c3c2Cl)ccn1 [Example I-46, 3-(4-((7-chloro-1-methyl-2-((5-methyl-4-oxo-4,5,6,7-tetrahydropyrazolo[1,5-a]pyrazin-2-yl)amino)-1H-imidazo[4,5-b]pyridin-6-yl)oxy)pyridin-2-yl)-1,1-dimethylurea]
CN1CCn2nc(Nc3nc4ncc(Oc5ccnc(NC(=O)O[C@@H]6CCOC6)c5)c(Cl)c4n3C)cc2C1=O [Example I-53, (R)-tetrahydrofuran-3-yl(4-((7-chloro-1-methyl-2-((5-methyl-4-oxo-4,5,6,7-tetrahydropyrazolo[1,5-a]pyrazin-2-yl)amino)-1H-imidazo[4,5-b]pyridin-6-yl)oxy)pyridin-2-yl)carbamate]
